Results reported in patent publication US20090088373A1, “USE OF COMPOSITIONS TO ENHANCE INNATE IMMUNE RESPONSE” (priority 2007, published 2009).

What was measured:
[1] = tested on: Staphylococcus aureus ΔmprF; experiment: Direct co-incubation of Pimecrolimus with S. aureus ΔmprF cultures (OD600); format: cell-based; settings: for Bacterial growth OD600 (Mean): 10 nM Pimecrolimus co-incubated with S. aureus, no keratinocyte lysate, 37° C.
Description: To assess the effect of pimecrolimus on the innate immune response of the epidermis against bacteria, cultures of normal human keratinocytes (NHEK) are stimulated with a concentration of 10 nM pimecrolimus, 1 nM 1.25D3 (active 1.25 D-hydroxy calciferol) or their combination. Cells are lysed via sonication 20 minutes in an ice bath, after which cell lysates were mixed with Staphylococcus aureus ΔmprF cultures and incubated at 37° C. Bacterial growth over time is monitored by OD600 (Table 1). To determine if Pimecrolimus alone was able to kill Staphylococcus aureus ΔmprF, Pimecrolimus in a concentration of 10 nM is co-incubated with Staphylococcus aureus ΔmprF cultures and incubated at 37° C. (Table 2). Bacterial growth is monitored by OD600 (*: p<0.05; **: p<0.01; Student's t-test).

TLR2 = TLR2 gene expression by qPCR in NHEK; format: cell-based, human; settings: for TLR2 mRNA expression (Mean): 10 nM pimecrolimus; for TLR2 mRNA expression (Means of N = 3): Example 6, 10 nM Pimecrolimus, 1 nM 1,25D3; for TLR2 gene expression (Mean): Example 8, 24 hours
Description: To assess the effect of pimecrolimus on the innate immune response of the epidermis, cultures of normal human keratinocytes (NHEK) are stimulated with a combination of a concentration of 10 nM pimecrolimus and of 1 nM 1.25D3. Gene expression of TLR1, TLR2, TLR4, TLR6 and CD14 are evaluated by qPCR. For CD14 protein expression, a Western Blot is performed and bands are quantified by densitometry using lmagej. Vehicle treated keratinocytes serve as controls. Cathelicidin protein expression is evaluated by immunofluorescence staining.
To assess the effect of pimecrolimus on the innate immune response of the epidermis, cultures of normal human keratinocytes (NHEK) are stimulated with a concentration of 10 nM pimecrolimus,1 nM 1.25 D3, 0.1 μg/ml TLR2/6 ligand Malp-2 or their combination. Expression of cathelicidin, CD14 and TLR2 mRNA normal human keratinocytes is measured and evaluated accordingly to the procedures as detailed in Example 2 above.
To assess the effect of time dependent effects of pimecrolimus on the innate immune response of the epidermis, cultures of normal human keratinocytes (NHEK) are stimulated with 10 nM Pimecrolimus and low dose calciferol (1,25D3) 1 nM for different time points. mRNA expression of cathelicidin, CD14 and TLR2 is analyzed by qPCR.
To assess the effect of calciferol on varying levels of pimecrolimus on the innate immune response of the epidermis, cultures of normal human keratinocytes (NHEK) are stimulated with 0.01 nM, 0.1 nM, 1 nM and 10 nM concentrations of pimecrolimus with or without 1 nM concentrations of calciferol for 24 hours. Expression of cathelicidin mRNA and gene expression of TLR2 is measured and evaluated accordingly to the procedures as detailed in Example 2 above.

SMILES: CC[C@@H]1/C=C(\C)C[C@H](C)C[C@H](OC)[C@H]2O[C@@](O)(C(=O)C(=O)N3CCCC[C@H]3C(=O)O[C@H](/C(C)=C/[C@@H]3CC[C@H](Cl)[C@H](OC)C3)[C@H](C)[C@@H](O)CC1=O)[C@H](C)C[C@@H]2OC [Pimecrolimus, pimecrolimus]
- Bacterial growth OD600 (Mean) ([1]; 0 h): 0.3083
- Bacterial growth OD600 (Mean) ([1]; 2 h): 0.3387
- Bacterial growth OD600 (Mean) ([1]; 4 h): 0.4157
- Bacterial growth OD600 (Mean) ([1]; 5 h): 0.4333
- Bacterial growth OD600 (Mean) ([1]; 6 h): 0.4227
- Bacterial growth OD600 (Mean) ([1]; 8 h): 0.601
- Direct antimicrobial effect (in words) ([1]; summary of Table 2): does not have an antimicrobial effect by itself
- TLR2 mRNA expression (Mean) (TLR2; Example 3, 1 nM 1.25D3): 1.80
- TLR2 mRNA expression (Mean) (TLR2; Example 4, 1 nM 1.25 D3, 0.1 μg/ml Malp-2 or combination): 0.29
- TLR2 mRNA expression (Means of N = 3) (TLR2; 0 h): 1.00
- TLR2 mRNA expression (Means of N = 3) (TLR2; 8 h): 0.64
- TLR2 mRNA expression (Means of N = 3) (TLR2; 24 h): 1.31
- TLR2 mRNA expression (Means of N = 3) (TLR2; 48 h): 1.51
- TLR2 gene expression (Mean) (TLR2; 0.01 nM PIM with 1 nM 1.25D3): 0.82
- TLR2 gene expression (Mean) (TLR2; 0.01 nM PIM, no 1.25D3): 0.73
- TLR2 gene expression (Mean) (TLR2; 0.1 nM PIM with 1 nM 1.25D3): 0.57
- TLR2 gene expression (Mean) (TLR2; 0.1 nM PIM, no 1.25D3): 0.59
- TLR2 gene expression (Mean) (TLR2; 1 nM PIM with 1 nM 1.25D3): 1.07
- TLR2 gene expression (Mean) (TLR2; 1 nM PIM, no 1.25D3): 0.98
- TLR2 gene expression (Mean) (TLR2; 10 nM PIM with 1 nM 1.25D3): 3.94
- TLR2 gene expression (Mean) (TLR2; 10 nM PIM, no 1.25D3): 1.80
- TLR2 expression (in words) (TLR2; in the presence of low dose 1,25D3 and Malp-2): increasing
